Results taken from patent publication US20160287564A1, “METHODS OF ADMINISTERING GLUTAMINASE INHIBITORS” (Calithera Biosciences, Inc., priority 2015, published 2016).
“Also recorded” adds a separate entry of the source.

Tests used:
glutaminase = experiment: Glutaminase activity in peripheral blood mononuclear cells (PBMCs) of treated patients; format: in vivo, human; details: PBMCs from three patients treated with 600, 800 and 1000 mg three times per day; 10-58% leukemic blast counts
Description: The compound was administered three times per day (“TID”) at doses ranging from 100 mg per dose to 1000 mg per dose (i.e., 300 mg to 3000 mg total compound per day).

[1] = Pharmacokinetics in cancer patients, dosing schedule of FIG. 6; format: in vivo, human
Description: FIG. 6 is a table that describes the dosing regimen for CB-839.
CB-839 was administered to cancer patients according to the dosing schedule in FIG. 6. The half-life of CB-839 is approximately 4 hours.

acute leukemia = experiment: Clinical outcomes in efficacy-evaluable subjects with acute leukemia
Description: (§1) The compound of formula III (CB-839) was administered, orally, to fifteen human subjects with acute leukemia for 22 days. The compound was administered three times per day (“TID”) at doses ranging from 100 mg per dose to 1000 mg per dose (i.e., 300 mg to 3000 mg total compound per day). Plasma levels of the compound were monitored on days 1, 15, and 22. Subjects received the compound in a fasted state on days 1 and 15 (e.g., without a meal as defined herein) and in a fed state on day 22 (e.g., with a meal as defined herein). Administration of the compound in a fasted state consisted of oral administration of a first dose 1 hour before breakfast, oral administration of a second dose at 3 PM, and oral administration of a third dose prior to bedtime.
(§2) Each subject from Example 1 who remained enrolled in the trial were administered 600 mg of the compound of formula III orally, twice a day (“BID”), with food, each day after day 22 of the trial (i.e., 1200 mg of the compound per day).

[2] = Safety: dose-limiting toxicity and treatment-related adverse events in Examples 1 and 2
Description: as §1, §2

[3] = Plasma pharmacokinetics after oral TID/BID dosing, fasted or fed, in human subjects with acute leukemia; details: 600 mg twice a day with food
Description: The compound was administered three times per day (“TID”) at doses ranging from 100 mg per dose to 1000 mg per dose (i.e., 300 mg to 3000 mg total compound per day). Plasma levels of the compound were monitored on days 1, 15, and 22. Subjects received the compound in a fasted state on days 1 and 15 (e.g., without a meal as defined herein) and in a fed state on day 22 (e.g., with a meal as defined herein). Administration of the compound in a fasted state consisted of oral administration of a first dose 1 hour before breakfast, oral administration of a second dose at 3 PM, and oral administration of a third dose prior to bedtime.
Each subject from Example 1 who remained enrolled in the trial were administered 600 mg of the compound of formula III orally, twice a day (“BID”), with food, each day after day 22 of the trial (i.e., 1200 mg of the compound per day). […] Pharmacokinetics data was compared for subjects receiving 600 mg of the compound three times per day in a fasted state (i.e., 1800 mg of the compound per day, without meals as defined herein) and subjects receiving 600 mg of the compound two times per day in a fed state (i.e., 1200 mg of the compound per day, with meals as defined herein).

[4] = BID Fed dosing regimen, FIG. 6-8
[5] = occurred in greater than 10% of subjects, fifteen subjects

PK variability with BID Fed dosing regimen [1, 4]: PK variability is reduced
exposure versus dose ([1]; cancer patients, dosing schedule of FIG. 6): Exposure generally increases with dose
half-life ([1]; human, in vivo, oral, cancer patients): ~4 h
time in which Cmax was reached [3]: 2 to 6 h
plasma levels of the compound ([3]; all subjects): exceeded 450 nM
Compound: O=C(Cc1cccc(OC(F)(F)F)c1)Nc1ccc(CCCCc2nnc(NC(=O)Cc3ccccn3)s2)nn1 [CB-839]
inhibition of glutaminase activity (glutaminase): > 94%
exposure with BID Fed dosing regimen [1, 4]: consistent exposure; also recorded: target CB-839 concentrations are maintained
complete response (acute leukemia; after 6 cycles of dosing): One subject achieved a complete response in the bone marrow with incomplete recovery of peripheral counts
stable disease for 4-10 cycles (acute leukemia; of 15 efficacy-evaluable subjects across all dose levels, 1 cycle=21 days): 5 (33%) subjects
average time remaining on the study drug (acute leukemia; subjects with stable disease): 134 days
dose-limiting toxicity ([2]; Examples 1 and 2, all dose levels): No dose-limiting toxicity was identified
increased bilirubin levels (treatment-related adverse event) [2, 5]: 2 subjects
increased transaminase levels (treatment-related adverse event) [2, 5]: 4 subjects
